A melting point compilation (Tetko et al.; mined from patent text by program, amines drawn as free bases though some values may be those of a salt)

| SMILES | melting point [°C] |
| --- | --- |
| COc1cc(C(=O)N(C(C)C)C2CCCCC2)ccc1Cn1cccc2nc(C)nc1-2 | 218 to 221 |
| COCCNc1cccc(C(N)=O)c1 | 89 to 91 |
| COC(=O)C1N2C(=O)C(N3C(=O)c4ccccc4C3=O)C2SCC1(C)O (stereo not drawn) | 203 |
| O=C(NNC(=O)c1ccccc1C(F)(F)F)c1ccccc1F | 171 to 173 |
| O=C(O)c1cnc(S)n1C(c1ccccc1)c1ccccc1 | 158 |
| CN(C(=O)Nc1ccccc1)C1CCCCC1 | 195 to 197 |
| NS(=O)(=O)c1ccc(-c2cnn(CC3=CCCCC3)c(=O)c2-c2ccc(F)cc2)cc1 | 192 to 193 |
| O=C(C=Cc1ccccc1Sc1ccc(Cl)cc1)N1CCCC1=O | 144 to 147 |
| CC(C)(C)OC(=O)/C(C#N)=C/c1cccc2ccccc12 | 51 to 53 |
| COc1ccc(C(=O)SC[C@@H](C)C(=O)N2CCC[C@H]2C(=O)O)cc1 | 140 to 141 |
| CC[C@@]1(O)C(=O)OCc2c1cc1n(c2=O)Cc2c-1nc1ccc(C)c3c1c2C(NC(C)=O)CN3 (stereo partly drawn) | 225 to 235 |
| O=S(=O)(CCNc1ccccc1)NCCCOc1cccc(CN2CCCCC2)c1 | 112 to 115 |
| O=C(NN1CCN(Cc2c[nH]c3ccccc23)CC1)c1ccccc1 | 176 to 178 |
| CC1(C)CC(=C(c2ccccc2)c2ccc(OCCOCCO)cc2)CC(C)(C)C1 | 116 to 117 |
| NNC(=O)c1ccn2ncnc2c1 | 244 to 245 |
| CC(C)C[C@H](NC(=O)OC(C)(C)C)C(=O)N[C@@H](C(C)C)[C@@H](O)c1c(-c2ccccc2)c1=O | 158 to 161 |
| OCc1cccc(-c2cccc(-c3cn([C@H]4CN5CCC4CC5)nn3)c2)c1 | 201 |
| Cc1[nH]c(=O)ccc1C(=O)c1ccc(C#N)cc1 | 172 to 175 |
| COc1cc(NC2=NCC3(CN4CCC3CC4)O2)ncn1 (stereo not drawn) | 80 to 85 |
| Cc1ccc(C(=O)C2=C(O)C(=O)N(c3ccc(C)nn3)C2c2ccc(OCCN(C)C)cc2)cc1 (stereo not drawn) | 263 to 266 |
| O=c1[nH]cc(Cc2ccccc2)cc1Br | 151 to 152 |
| CN(C)S(=O)(=O)c1cc(N)c(N)c([N+](=O)[O-])c1 | 211 to 213 |
| COc1ccc([N+](=O)[O-])cc1C(C#N)O[Si](C)(C)C (stereo not drawn) | 108 to 111 |

| SMILES | melting point [°C] |
| --- | --- |
| O=C(O)CCCCOc1cccc2occc12 | 108 |
| CN1CCC(c2cc3cccc(O)c3o2)CC1 | 144 to 146 |
| Cc1ncsc1C(C)(O)c1ccco1 (stereo not drawn) | 127 to 128 |
| Cc1ccc(N)c(C(=O)Nc2cccnc2Cl)c1 | 187 to 190 |
| COc1ccc(CS(=O)(=O)c2cc3c(OC)cc(OC)cc3oc2=O)cc1 | 183 to 185 |
| CC(C)OC(=O)N1c2cncnc2NC(=S)C1C (racemic) | 203 to 204 |
| CN(C(=O)OC(C)(C)C)c1cc(Oc2ccc(-c3ccccc3)cc2)ccc1N | 122 to 123 |
| NS(=O)(=O)c1ccc(NC(=O)CCl)c(Br)c1 | 174 to 175 |
| Cc1c(CN2CCc3c(c4ccccc4n3C)C2=O)ncn1S(=O)(=O)N(C)C | 194 to 196 |
| CN(C)C(=O)Nc1ccc(OS(C)(=O)=O)c(Cl)c1 | 130 to 132 |
| COc1ccc(-c2n[nH]c(N=CN(C)C)c2C#N)cc1 | 169 to 171 |
| CCCCC(CC)C(=O)Nc1ccc2c(c1)c(Cc1ccc(C(=O)NS(=O)(=O)c3ccccc3)cc1OC)cn2C (stereo not drawn) | 169 to 171 |
| COc1ccc(C=O)c(Cl)c1O | 204 to 206 |
| CN1CCN(C)C(c2ccc(Nc3nc(Br)cn(C)c3=O)cc2)C1=O (stereo not drawn) | 206 to 207 |
| CC(C)S(=O)(=O)c1cnc2c(c1)nc(CC(C)(C)C)n2CC1CCOCC1 | 201 |
| COC(=O)Cc1ccc(C#C[Si](C)(C)C)cc1 | 55 to 58 |
| CC(=O)c1ccc(NC(=O)N2CCC3(CC2)CN(S(N)(=O)=O)c2ccccc23)cc1 | 233 to 236 |
| CSC1C(=O)Nc2c(Oc3ccccc3N)cccc21 (stereo not drawn) | 168 to 170 |
| CCC(=C(c1ccc(O)cc1)c1ccc(O)cc1)c1ccc(/C=C/C(=O)O)cc1 | 280 to 281 |
| COCOc1ccc(OCc2ccc(OCc3nc(-c4ccccc4)oc3C)cc2)c(CC#N)c1 | 123 to 124 |
| CC(C)(C)C1(c2ccc(C(=O)O)cc2)OCCO1 | 214 to 216 |
| CCC1(CCCN=[N+]=[N-])C(=O)NC(=O)NC1=O | 182 to 184 |
| CCCN1C(=O)COc2cc(F)c(N=c3sc(=S)n4n3CCCC4)cc21 | 112 to 114 |

More lines, now with the values ahead:

| melting point [°C] | SMILES |
| --- | --- |
| 235 to 238 | C=C(F)c1c[nH]c(=O)[nH]c1=O |
| 228 to 230 | COC(=O)c1ccc(C(=O)NS(=O)(=O)c2ccc(C(=O)NCCc3ccccc3)cc2)cn1 |
| 139 | Cc1ccc(S(=O)(=O)OCCCn2c(=NC(=O)C(F)(F)F)sc3cc(OC(F)(F)F)ccc32)cc1 |
| 169 to 170 | CCCCN(CCCC)c1ccc(C=CC=CC2=C(C#N)C(=C(C#N)C#N)OC2(C)C(F)(F)F)c(OC)c1 (stereo not drawn) |
| 186 to 187 | Cc1c(NC(=O)c2ccc(-c3ccc(F)cc3)cc2F)ccc2cc(CN3CCCCC3)cnc12 |
| 166 to 168 | CS(=O)(=O)N(C(=O)c1cc(Oc2ccc(C(F)(F)F)cc2Cl)ccc1[N+](=O)[O-])C(=O)c1cc(Oc2ccc(C(F)(F)F)cc2Cl)ccc1[N+](=O)[O-] |
| 169 to 175 | COC(=O)C1CCC2C3CCC4CC=CCC4(C)C3C(=O)CC12C (stereo not drawn) |
| 196 to 197 | CC(C)n1nc(-c2cc(I)c(N)nc2-c2ccccc2)ccc1=O |
| 114 to 117 | CC1Cc2cc3c(cc2C(C=Cc2cccc(Cl)c2)=NN1)OCO3 (stereo not drawn) |
| 232 to 234 | Cc1cc(SC2=C(O)C[C@@](CCc3ccc(O)cc3)(C(C)C)OC2=O)c(C(C)C)c2sc(N)nc12 |
| 107 to 108 | C#CCn1cc(F)cnc1=O |
| 207 to 210 | CC(C)(C)OC(=O)N1CCN(c2ccc(OC[C@@]3(C)Cn4cc([N+](=O)[O-])nc4O3)cc2Cl)CC1 |
| 50 to 52 | CCCCCCCCCCCCCCCCCC(=O)SC1CCN(C(C(=O)OC)c2ccccc2F)CC1 (stereo not drawn) |
| 98 to 101 | CCCSc1ncc(CO)n1Cc1ccccc1Cl |
| 148 to 152 | CCOc1ccc(N(c2ccccc2)C2(c3ccc(N(CC)Cc4ccccc4)cc3)OC(=O)c3cc(N(C)C)ccc32)cc1 (stereo not drawn) |
| 114 | COc1cc2c(cc1OC)C(COCCN1CCN(c3ccc(F)cc3)CC1)OCCC2 (stereo not drawn) |
| 176 to 179 | C[C@@H](N)CN(c1ccccn1)S(=O)(=O)O |
| 263 to 264 | Cc1c(-c2ccc(Cl)cc2)ccc2nc(C(=O)NC(Cc3ccc(OCc4ccccc4)cc3)C(=O)O)cn12 (stereo not drawn) |
| 205 to 207 | Cc1cn(C)c2c1N(C(=O)CN1CCN(C)CC1)c1ccccc1NC2=O |
| 257 to 259 | COC1CCc2c(c(C)[nH]c(=O)c2C#N)C1 (stereo not drawn) |
| 166 to 168 | COc1cc(NC2CCN(S(=O)(=O)c3ccccc3)CC2)ccc1C(N)=O |
| 213 to 214 | CCc1sc2ncnc(N)c2c1-c1ccc(NC(=O)c2ccccc2)cc1 |
| 65 to 70 | Cc1ccccc1C(CCC(=O)O)Oc1cc(OCc2ccsc2)ccc1C(=O)C=Cc1ccccn1 (racemic) |
| 90 to 91 | CCOC(=O)[C@@]1(F)[C@@H]2CC=C(C(=O)OCc3ccccc3)[C@@H]21 |
| 193 | CC(=O)Nc1nc(C(Cl)(Cl)Cl)ns1 |
| 87 | O=C(O)CCCC(=O)CCCc1ccccc1CCCC(=O)O |

| melting point [°C] | SMILES |
| --- | --- |
| 114 to 116 | CCC(=O)NCCC1CCc2cc(Br)c3c(c21)CCCO3 (stereo not drawn) |
| 80 to 84 | Fc1ccc2c(c1)Cc1cccnc1-2 |
| 264 to 266 | CC(=O)N1c2cc([N+](=O)[O-])ccc2[C@H]2Cc3ccc([N+](=O)[O-])cc3[C@H]21 (relative stereo) |
| 95 to 110 | CC(=O)C(CC=Cc1ccccc1Cl)(CCC(=O)O)c1ccccc1 (stereo not drawn) |
| 118 | Clc1ccc(-c2ccc(C(Cl)Cn3cncn3)cc2)cc1 (stereo not drawn) |
| 216 to 217 | Cc1c(-c2ccc3c(c2)NC(=O)C(C)O3)nc2ccccn12 (stereo not drawn) |
| 106 | CCCCCCCCCCCCCCCCCCNC(=O)c1ccc(OC(C)=O)cc1 |
| 52 to 57 | CC(=O)C(=Cc1cccnc1)C(C)=O |
| 111 to 112 | CCCCCCCCCCCc1nnc(CO)n1-c1ccccc1C(=O)c1ccccc1 |
| 120 to 122 | CC(C)c1cc(O)n(C)n1 |
| 184 to 185 | CCOC(=O)c1cc2ccc(C)c(NS(=O)(=O)c3cccs3)c2[nH]1 |
| < 40 | CC(=O)O[C@@H]1CC(c2ccccc2)(c2ccccc2)[C@@H]2CN(Cc3ccccc3)C[C@@H]2C1=O (racemic) |
| 249 to 252 | C=CCNc1c(C#N)cnc2cn[nH]c12 |
| 200 to 202 | COC(=O)C1=C(C)NC(C)=C(c2nc(CCl)no2)C1c1cccc([N+](=O)[O-])c1 (stereo not drawn) |
| 130 to 132 | COCCOc1ccc(CCC(=O)NS(=O)(=O)CCC(C)C)c(Oc2ncc(C(F)(F)F)cc2Cl)c1 |
| 110 | CCc1c(C)nc(-c2ncc([N+](=O)[O-])n2C)nc1C |
| 129 to 132 | CCCCOc1c(-c2ccc(S(C)(=O)=O)cc2)cnn(-c2ccc(F)c(F)c2)c1=O |
| 193 to 194 | Nc1nc2[nH]c(CCC#Cc3ccc(C(=O)N[C@@H](CCC(=O)O)C(=O)O)o3)cc2c(=O)[nH]1 |
| 116 to 117 | CCOC(=O)CCCCn1c(=O)[nH]c2ccsc2c1=O |
| 285 to 287 | COc1ccc(C(=O)Nc2c(-c3cc(Cl)ccc3O)c3cc(C(F)(F)F)ccc3[nH]c2=O)cc1 |
| 191 | Cc1cccc(-c2n[nH]cc2-c2ccnc(-c3ccc(OCc4cn(C)cn4)cc3)c2)n1 |
| 150 to 152 | O=C(c1cccs1)c1cc(Cc2ccccc2)c(O)c2ccccc12 |
| 144 to 146 | COC(=O)c1cc(C(C)C)c(OS(=O)(=O)NC(=O)Cc2c(C(C)C)cc(C(C)C)cc2C(C)C)c(C(C)C)c1 |
| 135 to 136 | CC(=O)c1ccc(Oc2ccc([N+](=O)[O-])cc2C#N)cc1 |
| 139 to 141 | O=C1C=C(C(=O)c2ccccc2[N+](=O)[O-])CC(c2ccccc2)N1 (stereo not drawn) |
| 152 to 155 | CC(=O)OCCN1CSC(=Cc2cc(C(C)(C)C)c(O)c(C(C)(C)C)c2)C1=O |
